What was measured:
Format in all cases: cell-based
[1] = biological target: T1, hGPR17L-G136S (Homo sapiens, UniProt Q13304, G136S); assay: GloSensor cAMP assay, inhibition of forskolin-stimulated cAMP
T1 construct: expressed in transfected cells; host or cells: HEK293 (ATCC CRL-1573), transient transfection
Method: (§1) HEK293 cells were seeded at 20,000 cells/well into white, opaque 96-well plates. The next day, cells were transiently cotransfected with pGloSensor-cAMP-22F and pcDNA3-HA-hGPR17L or pcDNA3-HA-hGPR17L-variants using lipofectamine 3000. Twenty-four hours posttransfection, growth medium and transfection mix were aspirated and replaced with 100 μl/well equilibration medium (2% Promega GloSensor cAMP reagent [E1291; Promega Corporation] in CO2-independent medium) and incubated at room temperature for 2 h. Baseline luminescence was read on a Molecular Devices SpectraMax iD5 plate reader (Molecular Devices) at ambient room temperature for 8 min. Subsequently, 10 μl/well MDL29,951 diluted in assay buffer (HBSS, 20 mM HEPES, pH 7.2) was added and luminescence was read for 10 min. Finally, 10 μl/well forskolin (1099; Tocris Bioscience) diluted in assay buffer was added and luminescence was measured for 20–30 min. The average luminescence value for the 14–20 min time points for each well was normalized to their average baseline luminescence value and expressed as a percentage of the forskolin-stimulated response within each transfection condition.

[2] = biological target: T2, hGPR17L-V103M (Homo sapiens, UniProt Q13304, V103M); assay: as above
T2 construct: expressed in transfected cells; host or cells: HEK293 (ATCC CRL-1573), transient transfection
T2 sequence (Q13304 whole entry V103M): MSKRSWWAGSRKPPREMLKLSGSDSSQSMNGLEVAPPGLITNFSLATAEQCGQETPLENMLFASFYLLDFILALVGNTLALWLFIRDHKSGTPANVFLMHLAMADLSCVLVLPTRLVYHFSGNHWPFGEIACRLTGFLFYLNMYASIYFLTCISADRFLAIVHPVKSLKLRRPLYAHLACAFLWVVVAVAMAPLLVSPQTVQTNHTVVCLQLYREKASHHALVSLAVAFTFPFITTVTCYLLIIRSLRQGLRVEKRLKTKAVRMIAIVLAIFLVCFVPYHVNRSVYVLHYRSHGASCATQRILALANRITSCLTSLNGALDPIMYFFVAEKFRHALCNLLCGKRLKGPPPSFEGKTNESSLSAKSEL
Method: as §1

[3] = biological target: T3, hGPR17L-D105N (Homo sapiens, UniProt Q13304, D105N); assay: as above
T3 construct: expressed in transfected cells; host or cells: HEK293 (ATCC CRL-1573), transient transfection
T3 sequence (Q13304 whole entry D105N): as the sequence (Q13304 whole entry V103M) above, with M103V, D105N counted along it
Method: as §1

[4] = biological target: T4, hGPR17L-WT (Homo sapiens, UniProt Q13304); assay: as above
T4 construct: expressed in transfected cells; host or cells: HEK293 (ATCC CRL-1573), transient transfection of pcDNA3-HA-hGPR17L
T4 sequence (Q13304 whole entry): as the sequence (Q13304 whole entry V103M) above, with M103V counted along it
Method: as §1

[5] = biological target: T5, hGPR17L-G354V (Homo sapiens, UniProt Q13304, G354V); assay: as above
T5 construct: expressed in transfected cells; host or cells: HEK293 (ATCC CRL-1573)
T5 sequence (Q13304 whole entry G354V): as the sequence (Q13304 whole entry V103M) above, with M103V, G354V counted along it
Method: as §1

[6] = biological target: T6, hGPR17L-R248Q (Homo sapiens, UniProt Q13304, R248Q); assay: as above
T6 construct: expressed in transfected cells; host or cells: HEK293 (ATCC CRL-1573), transient transfection
T6 sequence (Q13304 whole entry R248Q): as the sequence (Q13304 whole entry V103M) above, with M103V, R248Q counted along it
Method: as §1

[7] = biological target: T7, hGPR17L-V96M (Homo sapiens, UniProt Q13304, V96M); assay: as above
T7 construct: expressed in transfected cells; host or cells: HEK293 (ATCC CRL-1573), transient transfection
T7 sequence (Q13304 whole entry V96M): as the sequence (Q13304 whole entry V103M) above, with V96M, M103V counted along it
Method: as §1

[8] = biological target: T8, hGPR17L-R301H (Homo sapiens, UniProt Q13304, R301H); assay: as above
T8 construct: expressed in transfected cells; host or cells: HEK293 (ATCC CRL-1573)
T8 sequence (Q13304 whole entry R301H): as the sequence (Q13304 whole entry V103M) above, with M103V, R301H counted along it
Method: as §1

[9] = biological target: T9, hGPR17L-F43L (Homo sapiens, UniProt Q13304, F43L); assay: as above
T9 construct: expressed in transfected cells; host or cells: HEK293 (ATCC CRL-1573), transient transfection
T9 sequence (Q13304 whole entry F43L): as the sequence (Q13304 whole entry V103M) above, with F43L, M103V counted along it
Method: as §1

[10] = biological target: T10, hGPR17L-A131T (Homo sapiens, UniProt Q13304, A131T); assay: as above
T10 construct: expressed in transfected cells; host or cells: HEK293 (ATCC CRL-1573), transient transfection
T10 sequence (Q13304 whole entry A131T): as the sequence (Q13304 whole entry V103M) above, with M103V, A131T counted along it
Method: as §1

[11] = biological target: T4, hGPR17L-WT; assay: Calcium flux assay
Method: (§2) HEK293 cells were seeded at 20,000 cells/well into black, optical bottom, poly-D-lysine coated 96-well plates. The following day, cells were transiently transfected with pcDNA3-HA-hGPR17L or pcDNA3-HA-hGPR17L-variants using lipofectamine 3000. Twenty-four hours after transfection, the growth medium and transfection mix were decanted and 100 μl/well assay buffer (HBSS, 20 mM HEPES, pH 7.2) and 100 μl/well Calcium 6 loading dye (R8190; Molecular Devices) were added to the plate and incubated at 37 °C, 5% CO2 for 1 h 45 min. Plate was allowed to equilibrate to room temperature on the bench top for 30 min. MDL29,951 diluted in assay buffer was added to the wells and fluorescence (485 nm excitation, 525 nm emission, and 515 nm automatic emission cutoff) was measured using a Molecular Devices FlexStation3 (Molecular Devices). For experiments with pertussis toxin, cells were pretreated with 100 ng/ml pertussis toxin overnight and 100 ng/ml pertussis toxin was included with Calcium 6 loading dye for calcium flux assays.

[12] = biological target: T7, hGPR17L-V96M; assay: Calcium flux assay
Method: as §2

[13] = biological target: T9, hGPR17L-F43L; assay: Calcium flux assay
Method: as §2

[14] = biological target: T10, hGPR17L-A131T; assay: Calcium flux assay
Method: as §2

[15] = HEK293, inhibition of 3 μM forskolin-stimulated cAMP
[16] = read-out: cAMP IC50, HEK293, inhibition of 3 μM forskolin-stimulated cAMP
[17] = read-out: Ca2+ EC50, HEK293, calcium mobilization

T1 sequence (Q13304 whole entry G136S): as the sequence (Q13304 whole entry V103M) above, with M103V, G136S counted along it

O=C(O)CCc1c(C(=O)O)[nH]c2cc(Cl)cc(Cl)c12 [MDL29,951]
fold less potent for inhibition of forskolin-stimulated cAMP relative to hGPR17L-WT [1]: approximately 400 fold
cAMP Efficacy (% inhibition) ([1]; HEK293, 3 μM forskolin): 39 ± 2.3 % inhibition
cAMP 10 μM MDL +3 μM FSK (% of FSK) ([1]; HEK293, 10 μM MDL29,951): 65 ± 5.0 % of FSK
cAMP 100 μM MDL +3 μM FSK (% of FSK) ([1]; HEK293, 100 μM MDL29,951): 60 ± 3.4 % of FSK
cAMP pIC50 ± SEM [1, 15]: 5.89 ± 0.30
IC50 [1, 16]: 1300 nM
cAMP Efficacy (% inhibition) ([2]; HEK293, 3 μM forskolin): 40 ± 1.3 % inhibition
cAMP 10 μM MDL +3 μM FSK (% of FSK) ([2]; HEK293, 10 μM MDL29,951): 81 ± 4.0 % of FSK
cAMP 100 μM MDL +3 μM FSK (% of FSK) ([2]; HEK293, 100 μM MDL29,951): 101 ± 4.0 % of FSK
cAMP pIC50 ± SEM [2, 15]: 9.24 ± 0.41
IC50 [2, 16]: 0.57 nM
fold less potent for inhibition of forskolin-stimulated cAMP relative to hGPR17L-WT [3]: sixfold less potent
cAMP Efficacy (% inhibition) ([3]; HEK293, 3 μM forskolin): 48 ± 4.7 % inhibition
cAMP 10 μM MDL +3 μM FSK (% of FSK) ([3]; HEK293, 10 μM MDL29,951): 49 ± 7.3 % of FSK
cAMP 100 μM MDL +3 μM FSK (% of FSK) ([3]; HEK293, 100 μM MDL29,951): 56 ± 10 % of FSK
cAMP pIC50 ± SEM [3, 15]: 7.75 ± 0.25
IC50 [3, 16]: 18 nM
cAMP Efficacy (% inhibition) ([4]; HEK293, 3 μM forskolin): 47 ± 2.5 % inhibition
cAMP 10 μM MDL +3 μM FSK (% of FSK) ([4]; HEK293, 10 μM MDL29,951): 92 ± 4.4 % of FSK
cAMP 100 μM MDL +3 μM FSK (% of FSK) ([4]; HEK293, 100 μM MDL29,951): 115 ± 6.1 % of FSK
cAMP pIC50 ± SEM [4, 15]: 8.52 ± 0.13
IC50 [4, 16]: 3 nM
cAMP Efficacy (% inhibition) ([5]; HEK293, 3 μM forskolin): 42 ± 6.7 % inhibition
cAMP 10 μM MDL +3 μM FSK (% of FSK) ([5]; HEK293, 10 μM MDL29,951): 91 ± 13 % of FSK
cAMP 100 μM MDL +3 μM FSK (% of FSK) ([5]; HEK293, 100 μM MDL29,951): 113 ± 10 % of FSK
cAMP pIC50 ± SEM [5, 15]: 8.34 ± 0.25
IC50 [5, 16]: 4.6 nM
cAMP Efficacy (% inhibition) ([6]; HEK293, 3 μM forskolin): 41 ± 3.9 % inhibition
cAMP 10 μM MDL +3 μM FSK (% of FSK) ([6]; HEK293, 10 μM MDL29,951): 84 ± 5.5 % of FSK
cAMP 100 μM MDL +3 μM FSK (% of FSK) ([6]; HEK293, 100 μM MDL29,951): 98 ± 6.7 % of FSK
cAMP pIC50 ± SEM [6, 15]: 8.73 ± 2.2
IC50 [6, 16]: 1.9 nM
cAMP Efficacy (% inhibition) ([7]; HEK293, 3 μM forskolin): 36 ± 4.2 % inhibition
cAMP 10 μM MDL +3 μM FSK (% of FSK) ([7]; HEK293, 10 μM MDL29,951): 60 ± 5.6 % of FSK
cAMP 100 μM MDL +3 μM FSK (% of FSK) ([7]; HEK293, 100 μM MDL29,951): 65 ± 4.6 % of FSK
cAMP pIC50 ± SEM [7, 15]: 8.77 ± 0.36
IC50 [7, 16]: 1.7 nM
cAMP Efficacy (% inhibition) ([8]; HEK293, 3 μM forskolin): 52 ± 5.2 % inhibition
cAMP 10 μM MDL +3 μM FSK (% of FSK) ([8]; HEK293, 10 μM MDL29,951): 72 ± 2.5 % of FSK
cAMP 100 μM MDL +3 μM FSK (% of FSK) ([8]; HEK293, 100 μM MDL29,951): 101 ± 2.9 % of FSK
cAMP pIC50 ± SEM [8, 15]: 8.00 ± 0.46
IC50 [8, 16]: 10 nM
cAMP Efficacy (% inhibition) ([9]; HEK293, 3 μM forskolin): 44 ± 2.7 % inhibition
cAMP 10 μM MDL +3 μM FSK (% of FSK) ([9]; HEK293, 10 μM MDL29,951): 107 ± 24 % of FSK
cAMP 100 μM MDL +3 μM FSK (% of FSK) ([9]; HEK293, 100 μM MDL29,951): 145 ± 30 % of FSK
cAMP pIC50 ± SEM [9, 15]: 8.81 ± 0.37
IC50 [9, 16]: 1.6 nM
cAMP Efficacy (% inhibition) ([10]; HEK293, 3 μM forskolin): 44 ± 4.5 % inhibition
cAMP 10 μM MDL +3 μM FSK (% of FSK) ([10]; HEK293, 10 μM MDL29,951): 77 ± 3.5 % of FSK
cAMP 100 μM MDL +3 μM FSK (% of FSK) ([10]; HEK293, 100 μM MDL29,951): 109 ± 5.3 % of FSK
cAMP pIC50 ± SEM [10, 15]: 8.31 ± 0.13
IC50 [10, 16]: 4.9 nM
calcium flux efficacy with pertussis toxin (% of control pretreatment) [11]: 82 ± 1.4 % of control pretreatment
calcium flux potency with pertussis toxin, fold shift in EC50 [11]: approximately 2.5 fold
Ca2+ Efficacy (% of WT Emax) ([11]; hGPR17L-WT, HEK293): 100 % of WT Emax
maximum stimulation of calcium mobilization ([11]; hGPR17L-WT, HEK293): 1.51 ± 0.14 Peak ΔF/F
Ca2+ pEC50 ± SEM ([11]; hGPR17L-WT, HEK293, calcium mobilization): 7.09 ± 0.11
EC50 ([11]; read-out: Ca2+ EC50, hGPR17L-WT, HEK293, calcium mobilization): 82 nM
calcium mobilization in the presence of pertussis toxin [12]: reduced calcium mobilization
fold less potent calcium response vs hGPR17L-WT ([12]; hGPR17L-V96M): 6–7 fold
reduction of efficacy of calcium response vs hGPR17L-WT ([12]; hGPR17L-V96M): approximately 70%
Ca2+ Efficacy (% of WT Emax) ([12]; hGPR17L-V96M, HEK293): 31 ± 4.7 % of WT Emax
Ca2+ pEC50 ± SEM ([12]; hGPR17L-V96M, HEK293, calcium mobilization): 6.27 ± 0.05
EC50 ([12]; read-out: Ca2+ EC50, hGPR17L-V96M, HEK293, calcium mobilization): 540 nM
Ca2+ Efficacy (% of WT Emax) ([13]; HEK293): 97 ± 3.9 % of WT Emax
Ca2+ pEC50 ± SEM ([13]; HEK293, calcium mobilization): 7.25 ± 0.19
EC50 [13, 17]: 57 nM
Ca2+ Efficacy (% of WT Emax) ([14]; HEK293): 109 ± 8.9 % of WT Emax
Ca2+ pEC50 ± SEM ([14]; HEK293, calcium mobilization): 6.63 ± 0.08
EC50 [14, 17]: 230 nM

Reference: PMC8267566, “Human GPR17 missense variants identified in metabolic disease patients have distinct downstream signaling profiles” (The Journal of Biological Chemistry, 2021)
